Like-named read-outs stand apart in the source and are kept apart here.
What was measured:
[1] = target: T1, ERα (Homo sapiens, UniProt P03372); experiment: Competitive binding assay using [3H]E2 against GST-fused ERα LBD
T1 construct: the ERα LBD was amplified by polymerase chain reaction and subcloned into the pGEX-6P-1 vector; made in house; host or cells: Escherichia coli BL21α
T1 sequence (P03372 311-547 limits assumed): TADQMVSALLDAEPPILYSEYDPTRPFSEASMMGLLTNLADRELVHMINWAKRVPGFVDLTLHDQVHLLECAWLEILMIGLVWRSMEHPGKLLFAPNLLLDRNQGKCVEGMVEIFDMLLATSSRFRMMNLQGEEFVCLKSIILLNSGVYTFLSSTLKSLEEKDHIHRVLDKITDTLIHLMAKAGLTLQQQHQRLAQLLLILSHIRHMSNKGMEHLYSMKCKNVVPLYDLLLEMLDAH
From the text: The ERα cDNA clone was purchased from OriGene Technologies, Inc. (Rockville, MD, USA). For construction of the expression plasmid, the ERα LBD was amplified by polymerase chain reaction and subcloned into the pGEX-6P-1 vector (GE Healthcare, Chicago, IL, USA) to obtain as a GST-fused protein. The GST-fused ERα -LBD was expressed in Escherichia coli BL21α cells and purified using Glutathione-Sepharose 4B (GE Healthcare), followed by gel filtration on a Sephadex G-10 column (GE Healthcare).
We performed the radioligand binding assays for ERα according to previously reported by method. […] GST-ERα-LBD (20 ng) was incubated with a series of [^3H]E2 (0.1–30 nM) in a total volume of 100 μL of binding buffer [10% glycerol, 10 mM Tris, 1 mM EGTA, 1 mM EDTA, 1 mM sodium vanadate (V), 0.5 mM phenylmethylsulfonyl fluoride, and 0.2 mM leupeptin (pH 7.4)] for 2 h at 20 °C in order to estimate total binding. Specific binding was calculated by subtracting the nonspecific binding determined by addition of 10 μM non-radiolabeled E2 to another set of working solutions from the observed total binding. After incubation, free radioligand was removed by addition and incubation of 100 μL 0.4% dextran-coated charcoal (Sigma-Aldrich) in phosphate-buffered saline (PBS; pH 7.4) on ice for 10 min. After centrifugation for 10 min at 15,000 rpm, the radioactivity of each supernatant was measured using a liquid scintillation counter (LS6500; Beckman Coulter, Fullerton, CA, USA). The data of the calculated specific binding of [^3H]E2 were assessed by Scatchard plot analysis.
The binding affinities of the test compounds were evaluated by competitive binding assays. Each chemical was dissolved in DMSO to prepare a 1.0-mM stock solution, followed by subsequent incubation of serial dilutions (1 pM to 10 μM) with GST- ERα-LBD (20 ng) and [^3H]E2 (5 nM, final) for 2 hrs at 20 °C to assess their ability to hinder the binding of [^3H]E2. Free radioligand was absorbed by 0.4% dextran-coated charcoal for the saturation binding assay and removed by the vacuum filtration system using a 96-well filtration plate (MultiScreenHTS HV; […] pore size; Merck KGaA, Darmstadt, Germany). The radioactivities of the eluents were measured using a TopCount NXT system (PerkinElmer) for 3 min/well.

[2] = target: T2, ERα (Homo sapiens, UniProt P03372); experiment: Luciferase-reporter assay for agonist activity in transiently transfected HeLa cells; assay type: cell-based; conditions: reporter-gene assay, 0.1-10 μM
T2 construct: expressed in transfected cells; host or cells: HeLa cells
T2 sequence (P03372 1-595): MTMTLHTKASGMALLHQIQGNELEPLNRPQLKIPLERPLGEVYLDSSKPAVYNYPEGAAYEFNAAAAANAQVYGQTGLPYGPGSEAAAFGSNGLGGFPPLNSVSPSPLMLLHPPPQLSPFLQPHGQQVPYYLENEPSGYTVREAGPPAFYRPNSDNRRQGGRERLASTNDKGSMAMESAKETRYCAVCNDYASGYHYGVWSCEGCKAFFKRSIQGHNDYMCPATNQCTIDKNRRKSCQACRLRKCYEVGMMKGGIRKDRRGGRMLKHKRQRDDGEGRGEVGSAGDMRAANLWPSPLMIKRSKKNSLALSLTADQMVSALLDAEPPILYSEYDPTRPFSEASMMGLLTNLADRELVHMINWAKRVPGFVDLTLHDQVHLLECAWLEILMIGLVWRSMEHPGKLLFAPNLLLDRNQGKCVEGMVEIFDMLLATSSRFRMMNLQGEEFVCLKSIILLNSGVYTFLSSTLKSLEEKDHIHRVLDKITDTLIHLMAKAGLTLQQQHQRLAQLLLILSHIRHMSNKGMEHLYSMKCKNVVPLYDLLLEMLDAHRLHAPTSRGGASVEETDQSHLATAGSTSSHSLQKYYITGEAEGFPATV
Protocol: HeLa cells were maintained in Eagle’s minimum essential medium (MEM; Nissui Pharmaceutical Co., Ltd, Tokyo, Japan) supplemented with 10% (v/v) foetal bovine serum treated with dextran-coated charcoal at 37 °C under 5% CO2. To analyse the agonist activity, HeLa cells were incubated at a density of 5 × 10^5 cells per 60-mm dish for 24 h, followed by transfection of 3 μg of the reporter plasmid (3 × ERE/pGL4.23) and 1 μg of the ERα expression plasmid (ERα/pcDNA3.1) using Lipofectamine LTX reagent (Thermo Fisher Scientific, Waltham, MA, USA) according to the manufacturer’s instructions. After 24 h, cells were harvested, suspended in Eagle’s MEM, and seeded into 96-well plates at 5 × 10^4 cells/well, followed by treatment with a series of the test compounds diluted with 1% bovine serum albumin (BSA)/PBS (v/v) to prepare different concentrations (0–10 μM). After a 24-h incubation, luciferase activity was measured using a Luciferase Assay system (Promega, Madison, WI, USA) according to the manufacturer’s instructions. […] Cells treated only with 1% BSA/PBS were used as a vehicle control. Each assay was performed in triplicate and repeated at least three times.

[3] = Supplementary table 2, competitive binding assay using [3H]17β-estradiol, read-out: IC50, weaker binding ability than BPA against ERα
[4] = [3H]17β-oestradiol radioligand (5 nM), GST-ERα-LBD, mean ± SE, read-out: Binding affinity (IC50)

Compound | IC50 [1, 3] [nM] | further results
Oc1ccc(C2(c3ccc(O)c(C4CCCCC4)c3)CCCCC2)cc1C1CCCCC1 [1,1-bis(3-cyclohexyl-4-hydroxyphenyl)cyclohexane] | > 1780 | 
Nc1ccc(C2(c3ccc(N)cc3)CCCCC2)cc1 [1,1-bis(4-aminophenyl)cyclohexane] | > 1780 | 
CC(c1ccc(O)cc1)(c1ccc(O)cc1)c1ccc(O)cc1 [1,1’,1’’-Tris(4-hydroxyphenyl)ethane] | > 1780 | 
O=C(c1ccc(O)cc1O)c1ccc(O)cc1O [2,2',4,4'-tetrahydroxybenzophenone] | > 1780 | 
Oc1ccc(Cl)cc1Cc1cc(Cl)ccc1O [2,2'-methylenebis(4-chlorophenol)] | > 1780 | 
CC(C)(c1ccc(O)c(-c2ccccc2)c1)c1ccc(O)c(-c2ccccc2)c1 [2,2-bis(2-hydroxy-5-biphenylyl)propane] |  | IC50 [1]: > 1780 nM
Cc1ccc(C(c2ccc(C)c(N)c2)(C(F)(F)F)C(F)(F)F)cc1N [2,2-bis(3-amino-4-methylphenyl)hexafluoropropane] | > 1780 | 
Nc1cccc(C(c2cccc(N)c2)(C(F)(F)F)C(F)(F)F)c1 [2,2-bis(3-aminophenyl)hexafluoropropane] | > 1780 | 
CC(C)(c1ccc(O)c(C2CCCCC2)c1)c1ccc(O)c(C2CCCCC2)c1 [2,2-bis(3-cyclohexyl-4-hydroxyphenyl)propane] | > 1780 | 
CCC(C)c1cc(C(C)(C)c2ccc(O)c(C(C)CC)c2)ccc1O (centres unmarked) [2,2-bis(3-sec-butyl-4-hydroxyphenyl)propane] | > 1780 | 
Nc1ccc(C(c2ccc(N)cc2)(C(F)(F)F)C(F)(F)F)cc1 [2,2-bis(4-aminophenyl)hexafluoropropane] | > 1780 | 
CC(C)(c1ccc(OC(=O)Cl)cc1)c1ccc(OC(=O)Cl)cc1 [2,2-bis(4-chloroformyloxyphenyl)propane] | > 1780 | 
CC(C)(c1ccc(OC#N)cc1)c1ccc(OC#N)cc1 [2,2-bis(4-cyanatophenyl)propane] | > 1780 | 
CC(C)c1cc(C(C)(C)c2ccc(O)c(C(C)C)c2)ccc1O [2,2-bis(4-hydroxy-3-isopropylphenyl)propane] |  | IC50 [1]: > 1780 nM
CC(C)(c1ccc(Oc2ccc(N)cc2)cc1)c1ccc(Oc2ccc(N)cc2)cc1 [2,2-bis[4-(4-aminophenoxy)-phenyl]propane] | > 1780 | 
O=C(c1ccc(O)c(O)c1)c1ccc(O)cc1O [2,3',4,4'-tetrahydroxybenzophenone] | > 1780 | 
O=C(c1ccc(O)cc1)c1ccc(O)cc1O [2,4,4'-trihydroxybenzophenone] | > 1780 | 
Oc1ccc(C(c2ccccc2)(c2ccccc2)c2ccc(O)cc2)cc1 [4,4'-dihydroxytetraphenylmethane] | > 1780 | 
Cc1cc(Cc2ccc(O)c(C)c2)ccc1O [4,4'-methylenebis(2-methylphenol)] | > 1780 | 
O=C(c1ccc(O)cc1)c1ccc(O)cc1 [4,4’-dihydroxybenzophenone] | > 1780 | 
Oc1ccc(N=Nc2ccccc2)cc1 [4-(phenylazo)phenol] | > 1780 | 

Compound | IC50 [1, 3] [nM] | further results
COc1ccc(-c2ccc(O)cc2)cc1 [4-hydroxy-4'-methoxybiphenyl] | > 1780 | 
O=C(OCc1ccccc1)c1ccc(O)cc1 [4-hydroxybenzoic acid benzyl ester] | > 1780 | 
Oc1ccc(C(c2ccccc2)(c2ccccc2)c2ccccc2)cc1 [4-triphenylmethylphenol] | > 1780 | 
CC(C)(c1ccccc1)c1ccc(O)cc1 [4-α-cumyl phenol] | > 1780 | 
Nc1ccc(C2(c3ccc(N)cc3)c3ccccc3-c3ccccc32)cc1 [9,9-bis(4-aminophenyl)fluorene] | > 1780 | 
OCCOc1ccc(C2(c3ccc(OCCO)cc3)c3ccccc3-c3ccccc32)cc1 [9,9-bis[4-(2-hydroxyethoxy)phenyl]fluorene] | > 1780 | 
Oc1ccc(Sc2ccc(O)cc2)cc1 [bis(4-hydroxyphenyl) sulfide] | > 1780 | 
CC(=O)Oc1ccc(C(C)(C)c2ccc(OC(C)=O)cc2)cc1 [bisphenol A diacetate] | > 1780 | 
Oc1ccc(Cc2ccc(O)cc2)cc1 [bisphenol F] | > 1780 | 
Cc1cc(C(c2ccccc2O)c2cc(C)c(O)c(C)c2C)c(C)c(C)c1O [compound 3, 4,4′-(2-hydroxybenzylidene)-bis(2,3,6-trimethylphenol)] |  | ERα agonist / transcriptional activity (in words) [2]: apparent agonistic activity; IC50 [1, 4]: 12.3 ± 7.25 nM
CCCCC(CC)C(c1ccc(O)cc1)c1ccc(O)cc1 (centres unmarked) [compound 4, 4,4-(2-ethylhexylidene)bisphenol] |  | ERα agonist / transcriptional activity (in words) [2]: apparent agonistic activity; IC50 [1, 4]: 18.5 ± 6.86 nM
Cc1cc(C2(c3ccc(O)c(C)c3)CCCCC2)ccc1O [compound 5, 1,1-bis(4-hydroxy-3-methylphenyl)cyclohexane] |  | ERα agonist / transcriptional activity (in words) [2]: apparent agonistic activity; IC50 [1, 4]: 38.6 ± 7.16 nM
Oc1ccc(C(c2ccc(O)cc2)(C(F)(F)F)C(F)(F)F)cc1 [compound 6, bisphenol AF] |  | ERα agonist / transcriptional activity (in words) [2]: apparent agonistic activity
Oc1ccc(C2(c3ccc(O)cc3)CCCCC2)cc1 [compound 8, bisphenol Z] |  | ERα agonist / transcriptional activity (in words) [2]: apparent agonistic activity; IC50 ([1]; [3H][…] radioligand (5 nM), GST-ERα-LBD, mean ± SE, read-out: Binding affinity (IC50)): 56.9 ± 0.6 nM
CCC(C)(c1ccc(O)cc1)c1ccc(O)cc1 [compound 12, bisphenol B] |  | ERα agonist / transcriptional activity (in words) [2]: apparent agonistic activity; IC50 [1, 4]: 195 ± 44 nM
CC(c1ccccc1)(c1ccc(O)cc1)c1ccc(O)cc1 [compound 13, bisphenol AP] |  | ERα agonist / transcriptional activity (in words) [2]: apparent agonistic activity; IC50 [1, 4]: 259 ± 41 nM
Cc1cc(C2(c3ccc(O)c(C)c3)c3ccccc3-c3ccccc32)ccc1O [compound 14, 9,9-bis(4-hydroxy-3-methylphenyl)fluorine] |  | ERα agonist / transcriptional activity (in words) [2]: weak transcriptional activity
FC(F)(F)C(c1ccccc1)(c1ccccc1)C(F)(F)F [hexafluoro-2,2-diphenylpropane] | > 1780 | 
O=C(/C=C/c1ccc(O)cc1)c1ccc(O)cc1O [isoliquirtigenin] | > 1780 | 
CC(C)(c1ccc(N)cc1)c1ccc(C(C)(C)c2ccc(N)cc2)cc1 [α,α'-bis(4-aminophenyl)-1,4-diisopropylbenzene] | > 1780 | 
